EP1038880B1, “Androstanes and pregnanes for allosteric modulation of GABA receptor” (priority 1994, dated 1995)
Read-outs that look alike come from different tables or passages of the source.

Experiments:
[1] = tested on: (+)bicuculline; conditions: cited from earlier work
[2] = tested on: tonic seizure; conditions: cited from earlier work
[3] = tested on: mice; conditions: data from Swinyard & Woodhead 1982; cited from earlier work
[4] = tested on: metrazol induced convulsions; conditions: cited from earlier work
[5] = tested on: picrotoxin; conditions: cited from earlier work
[6] = tested on: mice; assay: Loss-of-righting reflex (anesthetic activity); assay type: in vivo; conditions: iv
Experimental: The compounds of and used in the invention can also be used for anesthetic indications at high doses. However, the preferred route of administration to induce anesthesia is intravenous (i.v.) administration. In animals, a drug's anesthetic properties is measured by the drug's ability to produce a loss-of-righting reflex. The loss-of-righting reflex is defined as the inability of an animal to right itself within […] on its back. Mice were administered drug i.v. in the lateral tail vein. Following administration, mice were placed on their backs and observed for loss-of-righting reflex. Table 12. Anesthetic Activity of Neuroactive Steroids in Mice

[7] = tested on: strychnine; conditions: convulsant i.v.; data from Worms et al. 1982; cited from earlier work
[8] = biological target: T1, Glucocorticoid Receptors (Rattus norvegicus, UniProt P06536); assay: Inhibition of 3H-dexamethasone binding, brain cytosol; parameters: species or system rats; dose or concentration left out as unconfirmed; conditions: read-out: % of Inhibition
T1 construct: from tissue; host or cells: rat brain cytosol
T1 sequence (P06536 1-795): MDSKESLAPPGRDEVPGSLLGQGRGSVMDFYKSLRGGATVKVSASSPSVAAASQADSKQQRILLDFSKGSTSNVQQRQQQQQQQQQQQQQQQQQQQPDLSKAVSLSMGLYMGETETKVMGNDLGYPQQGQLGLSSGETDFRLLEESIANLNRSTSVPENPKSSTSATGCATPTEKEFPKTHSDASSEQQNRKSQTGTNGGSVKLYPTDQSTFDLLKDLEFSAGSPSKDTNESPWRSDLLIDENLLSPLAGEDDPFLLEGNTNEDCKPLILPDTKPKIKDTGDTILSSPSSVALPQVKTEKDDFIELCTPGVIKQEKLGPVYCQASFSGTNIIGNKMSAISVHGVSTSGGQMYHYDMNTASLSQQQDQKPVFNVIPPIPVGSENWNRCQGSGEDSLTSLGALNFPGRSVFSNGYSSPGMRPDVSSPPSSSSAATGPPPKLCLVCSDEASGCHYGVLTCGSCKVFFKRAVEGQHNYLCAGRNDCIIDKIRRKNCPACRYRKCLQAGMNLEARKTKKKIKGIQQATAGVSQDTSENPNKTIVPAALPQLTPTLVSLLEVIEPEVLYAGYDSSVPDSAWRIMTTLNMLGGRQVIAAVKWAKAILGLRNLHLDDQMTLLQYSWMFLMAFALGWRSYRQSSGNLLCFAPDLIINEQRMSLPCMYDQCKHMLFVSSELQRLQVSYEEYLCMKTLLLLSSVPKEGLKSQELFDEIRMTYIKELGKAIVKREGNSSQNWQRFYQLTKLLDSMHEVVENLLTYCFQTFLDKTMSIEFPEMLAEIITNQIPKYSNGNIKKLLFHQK
Experimental: (§1) Various hormonal activities of representative neuroactive steroids were further studied through testing their potential estrogenic, mineralocorticoid and glucocorticoid activities. These activities were analyzed by monitoring the ability of the compounds to inhibit binding of the steroid hormones to their respective hormone receptors.
For Table 4, brain cytosol fractions were prepared as for Table 3, and the compounds were incubated with 3 nM of ^3H-dexamethasone (the specific ligand for the glucocorticoid receptor).

[9] = tested on: Bovine Uteral Progesterone Receptors; assay: Inhibition of 3H-progesterone binding, uterus cytosol; conditions: competitor 10^-6M; 3H-progesterone 0.15 nM
Experimental: The data presented were obtained by performing assays in accordance with the procedures described in et al. 1988 previously to determine the effect of progesterone metabolites and their derivatives and the progestin R5020 on the binding of [^3H]R5020 to the progesterone receptor in rat uterus (Gee et al. 1988).
^3H-progesterone (0.15 nM) was incubated with the rat uterus cytosol in the presence of the test compounds. The specific binding were determined after incubation and compared to the control incubation without the compounds. The data are expressed as percent inhibition of binding.
In Table 3, rats were adrenalectomized 3 days prior to sacrifice. To isolate the mineralocorticoid receptor, brain cytosol fractions were prepared as describe in Gee, et al. 1988. The drugs were incubated with 3 nM of ^3H-aldosterone (the specific ligand for the mineralocorticoid receptor) in the presence of the selective type II agonist RU28362 (0.5 µM) which blocks ^3H-aldosterone binding to the type II (glucocorticoid) receptors. Table 2. Inhibition of 3H-Progesterone Binding to the Bovine Uteral Progesterone Receptors

[10] = tested on: metrazol induced convulsions; assay: animal or person; assay type: in vivo, mice; conditions: Mus musculus; metrazol 85 mg/kg s.c., steroids i.p., mice
Experimental: Experiments were also performed to determine the physiological relevance of neuroactive steroid and GABA receptor interactions by assessing the ability of the compounds of and used in the invention to prevent metrazol induced convulsions in mice. Mice were injected with various doses of the test compounds of the invention, 10 minutes prior to the injection of metrazol. The time to onset of myoclomis (presence of forelimb clonic activity) induced by metrazol was determined by observing each mouse for a period of 30 minutes. […] Table 6: Antimetrazol Activity of Neuroactive Steroids in Mice
(§2) The anticonvulsant tests are similar to that described above. […] The number of animals with tonic and/or clonic convulsions was recorded. In the maximal electroshock test, 50 mA of current at 60 Hz was delivered through corneal electrodes for 200 msec to induce tonic seizure. The ability of compounds to abolish the tonic component was defined as the endpoint. General CNS depression potential was determined by a rotorod test 10 minutes after the injection of compounds where the number of mice staying on a rotating (6 rpm) rod for 1 minute in one of the three trials was determined. […] Table 7. Anticonvulsant Activity of Exemplified Neuroactive Steroids and those of Selected Clinically Useful Anticonvulsants in Mice

[11] = tested on: strychnine; assay: Anticonvulsant test against strychnine; assay type: in vivo, mice; conditions: Mus musculus, read-out: ED50 STR
Experimental: as §2

[12] = tested on: (+)bicuculline; assay: Anticonvulsant test against (+)bicuculline; assay type: in vivo, mice; conditions: Mus musculus, read-out: ED50 BIC
Experimental: as §2

[13] = tested on: tonic seizure; assay: Maximal electroshock test; assay type: in vivo; conditions: Mus musculus, ip, steroids i.p., mice
Experimental: as §2

[14] = biological target: T2, Hippocampal Mineralocorticoid Receptors (Rattus norvegicus, UniProt P22199); assay: Inhibition of 3H-aldosterone binding, brain cytosol; parameters: species or system rats; conditions: competitor 10^-6M; 3 nM 3H-aldosterone, RU28362 0.5 µM
T2 construct: To isolate the mineralocorticoid receptor, brain cytosol fractions were prepared; from tissue; host or cells: rat brain (hippocampal) cytosol
T2 sequence (P22199 1-981): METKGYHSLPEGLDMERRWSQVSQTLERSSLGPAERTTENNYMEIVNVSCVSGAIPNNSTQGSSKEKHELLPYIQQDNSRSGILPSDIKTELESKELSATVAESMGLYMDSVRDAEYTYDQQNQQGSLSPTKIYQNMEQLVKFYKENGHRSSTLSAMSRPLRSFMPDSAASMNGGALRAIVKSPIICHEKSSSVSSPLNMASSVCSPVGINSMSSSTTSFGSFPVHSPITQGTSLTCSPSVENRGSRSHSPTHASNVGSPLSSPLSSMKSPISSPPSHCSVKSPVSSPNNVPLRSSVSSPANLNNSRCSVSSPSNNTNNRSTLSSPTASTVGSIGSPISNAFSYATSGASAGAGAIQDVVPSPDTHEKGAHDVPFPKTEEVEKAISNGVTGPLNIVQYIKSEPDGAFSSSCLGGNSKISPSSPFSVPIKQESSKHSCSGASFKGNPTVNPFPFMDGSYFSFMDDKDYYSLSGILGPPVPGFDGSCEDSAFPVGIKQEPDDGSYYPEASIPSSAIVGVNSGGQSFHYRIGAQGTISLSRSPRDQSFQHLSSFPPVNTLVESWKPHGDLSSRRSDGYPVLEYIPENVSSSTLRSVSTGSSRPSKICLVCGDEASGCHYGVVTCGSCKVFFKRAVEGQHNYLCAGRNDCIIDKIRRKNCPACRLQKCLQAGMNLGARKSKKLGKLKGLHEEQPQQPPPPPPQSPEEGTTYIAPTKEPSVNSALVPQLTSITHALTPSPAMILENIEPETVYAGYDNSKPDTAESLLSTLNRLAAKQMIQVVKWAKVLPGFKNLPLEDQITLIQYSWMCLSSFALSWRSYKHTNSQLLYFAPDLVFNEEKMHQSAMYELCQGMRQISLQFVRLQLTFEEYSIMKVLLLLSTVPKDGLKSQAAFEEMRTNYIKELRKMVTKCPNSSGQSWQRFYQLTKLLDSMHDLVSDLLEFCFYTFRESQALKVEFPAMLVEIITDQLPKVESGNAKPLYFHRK
Experimental: as §1
In Table 3, rats were adrenalectomized 3 days prior to sacrifice. […] Table 2. Inhibition of 3H-Progesterone Binding to the Bovine Uteral Progesterone Receptors
Table 3. Inhibition of 3H-Aldosterone Binding to Hippocampal Mineralocorticoid Receptors

[15] = tested on: picrotoxin; assay: Anticonvulsant test against picrotoxin; assay type: in vivo, mice; conditions: Mus musculus, read-out: ED50 PICRO
Experimental: as §2

[16] = tested on: N.I.H. Swiss-Webster mice; assay: Light/dark transition test; assay type: in vivo; conditions: IP, 10 min test, vs control, Dunnett's t-test (Fig. 8)
Experimental: Male N.I.H. Swiss-Webster mice (Harlan, Harlan, Indianapolis, IN) weighing 15-20 g were housed four per cage in polyethylene cages with sawdust bedding. The colony room was environmentally controlled (22°C) with a hr light/dark cycle (0600-1800hr). Food and water were available ad libitum, except during testing. The experiments were run from 0700-1500 hr and groups were counterbalanced for time of day effects. Mice were only administered drug or vehicle once.
The apparatus included two 2-compartment automated test chambers (Model RXYZCM16, Omnitech Electronics, Columbus, OH). The open compartment was connected to the enclosed compartment via a 7.5 × 7.5 cm passageway. The open compartment was brightly lit using a 200 W incandescent light bulb. The experimental room was kept dark. Interruptions of the infrared beams in either chamber were automatically recorded by being linked to a computer through a Digiscan Analyzer (Omnitech and the data was analyzed using the Integrated Lab Animal Monitoring System (Omnitech Electronics). N.IH. Swiss-Webster mice were administered vehicle or test drug intraperiotoneally (IP),10 min later they were placed in the center of the lit compartment. The number of transitions between the lit and dark chambers, total activity in the lit chamber and the time spent in the lit chamber were measured during a 10 min test period.

[17] = biological target: T3, Bovine Uteral Estrogen Receptors (Bos taurus, UniProt P49884); assay: Inhibition of 3H-estradiol binding, uteri cytosol; conditions: competitor 10^-6M; 3H-estradiol 0.15 nM
T3 construct: from tissue; host or cells: bovine uteri cytosol
T3 sequence (P49884 1-596): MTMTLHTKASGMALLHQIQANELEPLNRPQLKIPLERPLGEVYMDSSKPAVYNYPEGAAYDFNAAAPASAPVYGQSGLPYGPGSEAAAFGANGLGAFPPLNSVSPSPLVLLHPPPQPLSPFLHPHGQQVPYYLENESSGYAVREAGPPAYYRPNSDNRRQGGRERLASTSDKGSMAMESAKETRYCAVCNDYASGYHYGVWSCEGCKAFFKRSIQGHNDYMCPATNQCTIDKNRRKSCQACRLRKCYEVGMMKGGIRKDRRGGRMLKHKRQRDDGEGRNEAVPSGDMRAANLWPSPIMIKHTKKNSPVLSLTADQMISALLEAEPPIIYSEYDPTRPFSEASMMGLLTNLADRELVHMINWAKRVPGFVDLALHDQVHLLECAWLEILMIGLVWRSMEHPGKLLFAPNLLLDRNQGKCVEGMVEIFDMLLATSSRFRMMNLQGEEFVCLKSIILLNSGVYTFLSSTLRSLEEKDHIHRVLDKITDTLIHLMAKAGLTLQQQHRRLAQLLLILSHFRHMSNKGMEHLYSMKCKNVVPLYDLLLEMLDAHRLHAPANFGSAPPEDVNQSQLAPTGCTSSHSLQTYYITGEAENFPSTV

[18] = data from Swinyard & Woodhead 1982
[19] = convulsant i.v., data from Worms et al. 1982

## O=C1CN=C(c2ccccc2Cl)c2cc([N+](=O)[O-])ccc2N1 [Clonazepam]
[1]; [18]
  ED50 BIC: 0.0086 mg/kg
[2]; [18]
  ED50 MES: 93 mg/kg
[3]
  ED50 RR: 0.184 mg/kg
[4]; [18]
  ED50 MTZ: 0.009 mg/kg
[5]; [18]
  ED50 PICRO: 0.043 mg/kg

## CCC1(c2ccccc2)C(=O)NC(=O)NC1=O [Phenobarbital]
[3]
  ED50 RR: 69 mg/kg

## CC(=O)[C@H]1CC[C@H]2[C@@H]3CC[C@H]4C[C@H](O)CC[C@]4(C)C3=CC[C@]12C [3α-Hydroxy-5α-pregn-9-en-20-one]
[6]; 10 mg/kg
  Loss-of-Righting Reflex: 100

## NC(=O)CCC/N=C(\c1ccc(Cl)cc1)c1cc(F)ccc1O [Progabide]
[1]; [19]
  ED50 BIC: 30 mg/kg
[2]; data from Worms et al. 1982
  ED50 MES: 75 mg/kg
[7]
  ED50 STR: 75 mg/kg
[4]; [19]
  ED50 MTZ: 30 mg/kg
[5]; [19]
  ED50 PICRO: 105 mg/kg

## CC(=O)[C@H]1CC[C@H]2[C@@H]3CC[C@H]4C[C@](C)(O)CC[C@]4(C)[C@H]3CC[C@]12C [3α-hydroxy-3β-methyl-5α-pregnan-20-one]
[8]
  inhibition: 0.6%
[9]
  % of Inhibition: 4%
[10]
  ED50: 6.3 mg/kg
[11]
  ED50: > 100 mg/kg
[12]
  ED50: 61.9 mg/kg
[13]
  ED50: > 100 mg/kg
[14]
  inhibition at 1 µM: 3.2%
[15]
  ED50: 35.4 mg/kg

## CC(=O)[C@H]1CC[C@H]2[C@@H]3CC[C@@H]4C[C@@](O)(C#CCl)CC[C@]4(C)[C@H]3CC[C@]12C [3β-(Chloroethynyl)-3α-hydroxy-5β-pregnan-20-one]
[6]; 20 mg/kg
  Loss-of-Righting Reflex: 100

## CC(C)(O)[C@H]1CC[C@H]2[C@@H]3CC[C@H]4C[C@H](O)CC[C@]4(C)[C@H]3CC[C@]12C [5α-pregnan-20-dimethyl-3α,20-diol]
[8]
  inhibition: 2.6%
[9]
  % of Inhibition: 0%
[14]
  inhibition at 1 µM: 0%

## CC(=O)[C@H]1CC[C@H]2[C@@H]3CC[C@@H]4C[C@H](O)CC[C@]4(C)[C@H]3CC[C@]12C [5β-pregnan-3α-ol-20-one, 3α-OH-5β-pregnan-20-one]
[9]
  % of Inhibition: 9%
[16]
  number of transitions between the dark box and the light box, in words: significantly increased

## CO/C=C1/CC[C@H]2[C@@H]3CC[C@H]4C[C@H](O)CC[C@@H]4[C@H]3CC[C@]12C [3α-Hydroxy-17(Z)-methoxymethylene-19-nor-5α-androstane]
[6]; 5 mg/kg
  Loss-of-Righting Reflex: 75

## 5α-pregnan-3β,20-trimethyl-3α,20-diol
[9]
  % of Inhibition: 8%
[17]
  % of Inhibition: 0%
[14]
  % of Inhibition: 0%
